Results taken from patent US20240172756A1, “ORGANOANTIMONY(V) C[…] AND METHODS OF PRODUCTION AND USE THEREOF” (priority 2021, published 2024).
Converted amounts (≈) assume the structure as drawn.

Legend:
Cryptococcus neoformans [1] = settings: reference value; organism not given; cited from earlier work
Candida albicans [2] = assay: Antifungal disk diffusion assay, C. albicans; type: cell-based; settings: solid compound on paper disk
Description: (§1) To determine the antifungal properties of the two groups of Sb(V) cyanoximaes, Cryptococcus neoformans and Candida albicans, both of which are deadly human pathogens, were tested.
(§2) First, solid state powder compounds were deposited on paper disks and tested against two fungi: Cryptococcus neoformans and Candia albicans. Each experiment was conducted in triplicate with each compound at each concentration of deposited solid compound. The control was a blank paper (100% cotton disk).
(§3) Disk diffusion assays: No inhibition of Cryptococcus neoformans or Candida albicans for the following organoantimony(V) cyanoximate compounds at any concentration (S, ×2, ×4): H(ACO), H(ECO), H(MCO).

Cryptococcus neoformans [3] = assay: Antifungal disk diffusion assay, C. neoformans; type: cell-based; settings: solid compound on paper disk
Description: as §1, §2, §3

[4] = system: bacterial and fungal pathogens; assay: Antimicrobial activity overall (disk diffusion and MIC tests, strain not specified); type: cell-based
Description: (§4) To determine the antimicrobial potential of the two generations (G1—based on SbPh4-core, and G2—based on SbMe3-core) of newly synthesized Sb(V) cyanoximates, several representative compounds were first selected and their antimicrobial properties tested by using disk diffusion assays, The minimal inhibitory concentrations (MIC) of selected compounds were also determined in liquid cultures. Three bacterial and two fungal pathogens were used as target microorganisms. Bacterial pathogens included Gram-negative Pseudomonas aeruginosa and Gram-positive Staphylococcus aureus, representing the ESKAPE group of human pathogens known for their high virulence and antibiotic resistance.
(§5) Two different types of antimicrobial studies were performed: 1) paper disk studies during growth on solid media; and 2) MIC determination during growth in liquid media. […] Antifungal disk assays concluded that Sb(Ph)4 (ECO) was effective against Cryptococcus neoformans and Candida albicans. […] For MIC assays, Sb(Ph)4 (MCO), the Sb(V) cyanoximate, was tested, along with the free cyanoximes H(MCO), H(ECO), and Na[H(ACO)2].

Staphylococcus aureus = assay: MIC in liquid culture, S. aureus; type: cell-based; settings: for antimicrobial effect: Methicillin-resistant strain NRS70, paper disk and MIC studies; for MIC, S. aureus: Table 1
Description: as §4
(§6) MIC of the 3rd generation compounds, as well as complete MIC measurements for the 2nd generation Sb(V) compounds, are determined. A dilution assay in a 96-well-plate format, the gold standard for measuring MICS recommended by the Clinical Laboratory Standards Institute (CLSI), is utilized. Prior to plate inoculation, bacterial cultures of P. aeruginosa PAO1, S. aureus NRS70, E. foecium CC17, and E. coli S17 are grown in Mueller Hinton Broth (MHB) to middle log phase as determined by the individual growth curves and diluted to obtain absorbance at 600 nm of 0.1. These normalized cultures are diluted 1:100 using MHB and inoculated into the fresh medium with serially diluted Sb(V) compounds in 96-well plates. The plates are incubated for 24 h at 37° C. For fungal pathogens, cultures of Cryptococcus neoformans strain H99 and Candida albicans strain SC5314 are grown to stationary phase in YPD medium for 18 h at 30° C. Following incubation, fungal cells are centrifuged, washed three times with PBS, and then counted with trypan blue exclusion. Each compound is screened using a microdilution assay with 0.5×10^3 fungal cells in RPMI-MOPS medium at 35° C. for 48 h. Following incubations for bacterial or fungal pathogens, the OD600 is measured using a Biotek Synergy HT microtiter plate reader ([…].). The MIC is defined as the lowest concentration that inhibits growth. An aliquot from the clear wells from the MIC assay is plated on agar to determine minimum bactericidal concentration (MBC) or minimum fungicidal concentration (MFC). Each experiment is based on at least three biological replicates and repeated for consistency. The MIC and MBC for each compound is compared to those obtained for clinically applied antibiotics/antifungals. For bacterial pathogens, the corresponding antibiotics, such as tobramycin (P. aeruginosa), trimethoprim (S. aureus), gentamicin (E. coli) and ampicillin (E. foecium), are used. For fungal pathogens, the data is compared to the antifungal drugs Amphotericin B and Caspofungin for C. neoformans and C. albicans, respectively, by using the CLSI method.
as §5
(§7) MIC assays: The MIC assay protocol utilized for determination of the effects of various organoantimony(V) cyanoximate compounds in various bacteria is shown in FIG. 16. Each solubilized in DMSO at 5 mg/ml, starting concentration is 100 μg/ml. Error bars represent standard error of the mean (if none, the values were identical in each experiment). Untested compounds have no bar. Bars reaching 100 μg/ml were not considered to have antifungal activity.

Pseudomonas aeruginosa = assay: MIC in liquid culture, P. aeruginosa; type: cell-based; settings: for MIC, P. aeruginosa: Table 1; for antimicrobial effect: strain PAO1, paper disk and MIC studies
Description: as §4, §6, §5, §7

Cryptococcus neoformans [5] = assay: MIC assay, C. neoformans; type: cell-based; settings: Table 1
Description: as §1, §6
(§8) Second, the compounds were dissolved in DMSO to […], and their minimal inhibitory concentration (MIC) was determined against C. neoformans and C. albicans. Starting concentration used was 100 μg/ml, and then diluted 1:2.
as §7

Candida albicans [6] = assay: MIC assay, C. albicans; type: cell-based; settings: Table 1
Description: as §1, §6, §8, §7

[7] = system: Staphylococcus aureus MRSA; assay: Broth dilution assay, S. aureus MRSA; type: cell-based; settings: multi-drug resistant strain, FIG. 20
Excerpt: As shown in FIGS. 20-21, compounds containing Sb display higher bactericidal activity against Gram positive Staphylococcus aureus (FIG. 20) than Gram negative E. coli (FIG. 21). […] In addition, 25-40% reduction of growth was also observed for Sb(Ph4)Br, Sb(Ph4)ECO, Sb(Ph4)ACO, and Sb(Ph4)TCO against Gram negative E. coli (FIG. 21).

Escherichia coli = assay: MIC in liquid culture, E. coli; type: cell-based; settings: for MIC, E. coli: Table 1; for antimicrobial effect: strain S17, paper disk and MIC studies
Description: as §4, §6, §5, §7

Row | SMILES | MIC concentration (for reference) (Cryptococcus neoformans [1]) [mg/L] | antifungal activity / zone of inhibition in disk assay (Candida albicans [2]) | antifungal activity / zone of inhibition in disk assay (Cryptococcus neoformans [3]) | antimicrobial activity [4] | antimicrobial effect in MIC assays ([4]; organism not given) | antimicrobial effect (Staphylococcus aureus) | MIC, S. aureus (Staphylococcus aureus) [mg/L] | MIC, P. aeruginosa (Pseudomonas aeruginosa) [mg/L] | antimicrobial effect (Pseudomonas aeruginosa) | MIC, C. neoformans (Cryptococcus neoformans [5]) [mg/L] | MIC, C. albicans (Candida albicans [6]) [mg/L] | MIC (minimum inhibitory concentrations) [7] [mg/L] | bactericidal activity [7] | MIC, E. coli (Escherichia coli) [mg/L] | antimicrobial effect (Escherichia coli)
1 | C[C@@H]1[C@H](O)[C@@H](C)/C=C/C=C/C=C/C=C/C=C/C=C/C=C/[C@H](O[C@@H]2O[C@H](C)[C@@H](O)[C@H](N)[C@@H]2O)C[C@@H]2O[C@](O)(C[C@@H](O)C[C@@H](O)[C@H](O)CC[C@@H](O)C[C@@H](O)CC(=O)O[C@H]1C)C[C@H](O)[C@H]2C(=O)O [Amphotericin B] | 0.5 (≈ 0.541 µM) |  |  |  |  |  |  |  |  |  |  |  |  |  | 
2 | N#CC(=NO)C(=O)N1CCOCC1 [H(MCO), reference compound] |  | No inhibition | No inhibition | most antimicrobially active | no antimicrobial effect |  |  |  |  |  |  |  |  |  | 
3 | N#CC(=N[O][Sb]([c]1ccccc1)([c]1ccccc1)([c]1ccccc1)[c]1ccccc1)C(N)=O [SbPh4ACO] |  | only effective at inhibition of Cryptococcus neoformans | effective |  |  | significant antimicrobial effect | 100 | 100 | significant antimicrobial effect | 18.8 | 15.6 | 100 | significant bactericidal activity | 100 | significant antimicrobial effect
4 | [Br][Sb]([c]1ccccc1)([c]1ccccc1)([c]1ccccc1)[c]1ccccc1 [SbPh4Br, tetraphenylantimony(V) bromide, reference compound] |  |  |  |  |  |  |  |  |  |  |  |  | significant bactericidal activity |  | 
5 | CCOC(=O)C(C#N)=N[O][Sb]([c]1ccccc1)([c]1ccccc1)([c]1ccccc1)[c]1ccccc1 [SbPh4ECO] |  | effective | effective |  |  | significant antimicrobial effect | 150 | 150 | significant antimicrobial effect | 10.9 | 31.2 |  | significant bactericidal activity | >200 | significant antimicrobial effect
6 | N#CC(=N[O][Sb]([c]1ccccc1)([c]1ccccc1)([c]1ccccc1)[c]1ccccc1)C(N)=S [SbPh4TCO] |  | followed in antifungal activity against both strains | followed in antifungal activity against both strains |  |  | significant effects | 100 | >200 | essentially no antimicrobial activity | 25 | 100 |  | significant bactericidal activity | >200 | essentially no antimicrobial activity
